Laboratory results published in paper PMC3988029, “A Trisubstituted Benzimidazole Cell Division Inhibitor with Efficacy against Mycobacterium tuberculosis” (PLoS ONE, 2014).
Values after ≈ are worked out from the molar mass of the structure shown. Values joined by “and” are separate entries in the source; they are usually repeats but may differ in a detail not shown here. Equal entries are not always repeated. “Also recorded” adds a separate entry of the source. Where two headings read alike, the source gives them in different places.

Key:
[1] = test system: M. tuberculosis strain Erdman; experiment: Modified rapid (acute) murine model of infection; type: in vivo, Mycobacterium tuberculosis
[2] = target: T1, Mtb FtsZ (Mycobacterium tuberculosis, UniProt P9WN95); conditions: earlier work of the authors; no reference given; cited from earlier work
T1 sequence (P9WN95 whole entry, looked up): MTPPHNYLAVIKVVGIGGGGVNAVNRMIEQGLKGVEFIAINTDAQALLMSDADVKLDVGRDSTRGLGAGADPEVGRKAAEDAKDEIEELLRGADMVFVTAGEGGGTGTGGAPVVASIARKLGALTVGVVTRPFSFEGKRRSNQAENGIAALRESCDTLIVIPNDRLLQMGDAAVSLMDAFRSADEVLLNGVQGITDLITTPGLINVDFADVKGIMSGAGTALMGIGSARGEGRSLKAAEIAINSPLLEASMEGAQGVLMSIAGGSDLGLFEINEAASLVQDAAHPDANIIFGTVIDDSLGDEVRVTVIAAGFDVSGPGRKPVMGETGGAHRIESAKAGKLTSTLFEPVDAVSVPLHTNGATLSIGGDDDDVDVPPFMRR

[3] = test system: M. tuberculosis H37Rv; experiment: Microplate Alamar Blue assay (MABA) MIC; type: cell-based; conditions: Mycobacterium tuberculosis
[4] = test system: M. tuberculosis TN587; experiment: Microplate Alamar Blue assay (MABA) MIC; type: cell-based; conditions: Mycobacterium tuberculosis
[5] = test system: M. tuberculosis NHN382; experiment: Microplate Alamar Blue assay (MABA) MIC; type: cell-based; conditions: Mycobacterium tuberculosis
[6] = test system: M. tuberculosis W210; experiment: Microplate Alamar Blue assay (MABA) MIC; type: cell-based; conditions: Mycobacterium tuberculosis
[7] = test system: M. tuberculosis NHN20; experiment: Microplate Alamar Blue assay (MABA) MIC; type: cell-based; conditions: Mycobacterium tuberculosis
[8] = target: T1, Mtb FtsZ; experiment: Transmission electron microscopy of FtsZ polymerization; type: biochemical, M. tuberculosis; conditions: FtsZ 5 µM, GTP 25 µM
[9] = test system: M. tuberculosis H37Rv; experiment: Time-dose growth (OD600 nm) and kill (CFU) curves; type: cell-based, Mycobacterium tuberculosis
[10] = 100 ng/mL
Procedure: (§1) Blood was collected from animals using lithium heparin as anticoagulant, in the Animal Research & Welfare Domain at Disposition, Safety & Animal Research Montpellier (371 rue du Pr. J. Blayac, 34184 Montpellier Cedex 04, France) or vendors such as Charles River. Human plasma using lithium heparin as anticoagulant was provided by the EFS (Etablissement Français du Sang) of Montpellier, France. Plasma was spiked with the compound in order to obtain a final drug concentration of 100 ng/mL (expressed as non-salified compound). The spiked plasma (dedicated to C1h and C4h) was then incubated at 37°C for 1 h and 4 h. Plasma samples were analyzed by LC-MS/MS following protein precipitation. The limit of quantification for compounds was 10 ng/mL. Chromatographic conditions for LC analysis: 10 µL of the sample was injected to Luna Phenomenex C8 (50 mm×2.0 mm, 3 µm), Solvent A: ammonium acetate (0.15 g)/formic acid (2 mL)/HPLC water up to 1000 mL. […] MS/MS condition used for detection: Finnigan TSQ Quantum disco instrument, Excalibur version 2.0 acquisition system, ESI positive ion ionization mode. The mean percent of difference between C1h or C4h and C0 concentrations was calculated.
M%D (%) = 100 × [(C1h or C4h)–C0]/C0
(§2) The compounds were considered as stable if the mean percent of difference between C4h and C0 concentrations was less than 20%.

[11] = test system: M. tuberculosis H37Rv; conditions: lead selection from SAR studies; cited from earlier work
[12] = 100 ng/mL; remark: listed apart in the source
Procedure: as §1
M%D (%) = 100 × [(C1h or C4h)–C0]/C0
as §2

[13] = 5 µM, 1 mg/mL microsomal protein, NADPH, 20 min
Procedure: (§3) The flavin-containing monooxygenases (FMO)-dependent reactions were run in the presence of bovine serum albumin (BSA, 0.1%) for the duration of 0 and 20 min (with or without microsomal proteins and/or cofactors). […] Following protein precipitation with acetonitrile and their removal by centrifugation, supernatant fluids were analyzed by LC/MS-MS.
(§4) Thermo Finnigan TSQ Quantum Ultra instrument, ESI positive ion ionization mode. Each compound is studied in duplicates. Results are expressed in percentage of lability (or total metabolism).
(§5) Total metabolism = [1– (UC1 Peak Area)/(UC2 Peak Area)] × 100.
(§6) UCn = Unchanged Compound in condition n;
(§7) n = 1: incubation in the presence of NADPH cofactor after T = 20 min.
(§8) n = 2: incubation without cofactor at T = 0 min.

[14] = 5 µM, 1 mg/mL microsomal protein, NADPH, 20 min; remark: listed apart in the source
Procedure: as §3, §4, §5, §6, §7, §8

[15] = test system: M. tuberculosis clinical isolates; conditions: determined and reported; cited from earlier work

NNC(=O)c1ccncc1 [INH, isoniazid, reference compound]
CFU counts in the lung and spleen ([1]; IP 20 mg/kg qd, control drug): below the level of detection

CCCCOC(=O)Nc1cc2nc(C3CCCCC3)[nH]c2cc1N(CC)CC [SB-P3G2]
Inhibition of FtsZ polymerization [2]: inhibit FtsZ polymerization in a dose dependent manner

CN(C)c1cc2[nH]c(C3CCCCC3)nc2cc1NC(=O)c1ccc(OC(F)(F)F)cc1 [SB-P17G-A20]
MIC [3]: 0.16 µg/mL (≈ 0.358 µM) | MIC [4]: 0.16 µg/mL (≈ 0.358 µM) | MIC [5]: 0.16 µg/mL (≈ 0.358 µM) | MIC [6]: 0.16 µg/mL (≈ 0.358 µM) | MIC [7]: 0.16 µg/mL (≈ 0.358 µM) | Effect on FtsZ polymers (TEM) ([8]; 40 µM compound): the length, density and aggregation was visibly reduced | Effect on FtsZ polymers (TEM) ([8]; 80 µM compound): dispersed FtsZ polymers are observed | Concentration that steadily reduced bacterial viability ([9]; CFU plating, day 0, 2, 4, 6): 0.08 µg/mL | Killing characteristics ([9]; growth curves at various concentrations): concentration-dependent inhibitor with sub-MIC inhibitory characteristics | Lowest concentration at which bacterial growth was reduced ([9]; in some cases): 0.125 X MIC | Reduction in the bacterial load in the lungs ([1]; C57BL/6-Ifngtm1ts mice, 50 mg/kg IP bid, days 5 to 14 post-infection, vs infected controls): 1.73±0.24 log10 CFU | Reduction in the bacterial load in the spleen ([1]; C57BL/6-Ifngtm1ts mice, 50 mg/kg IP bid, days 5 to 14 post-infection, vs infected controls, 50 mg/kg): 2.68 log10 CFU and 2.68±0.48 log10 CFU | Plasma Stability (% hydrolysis) Human (4 h) [10]: 0.1% | MIC [11]: 0.16 µg/mL (≈ 0.358 µM) | Plasma Stability (% hydrolysis) Mouse (4 h) [12]: 24.4% | Liver Microsome Lability Human [13]: 39% | Liver Microsome Lability Mouse [14]: 45%

CCCCOC(=O)Nc1cc2nc(C3CCCCC3)[nH]c2cc1N(C)C [SB-P17G-C2]
Reduction in the bacterial load in the lungs or spleen ([1]; acute mouse model, data not shown): no significant reduction; also recorded: did not significantly reduce the bacterial load in the lungs or spleen | Plasma Stability (% hydrolysis) Human (4 h) [10]: 6.1% | MIC [11]: 0.06 µg/mL (≈ 0.167 µM) | Liver Microsome Lability Human [13]: 90% | Liver Microsome Lability Mouse [14]: 96% | MIC values against clinical isolates [15]: 0.06 to 0.13 µg/mL
